Source: patent US20160129089A1, “COMBINATION THERAPY” (ANTISENSE THERAPEUTICS LTD, priority 2013, published 2016)
Entries after “also recorded” stand apart in the source; their conditions may differ. Read-outs that look alike come from different tables or passages of the source. Marks after values point to notes of the source that are not given here.

What was measured:
[1] = test system: human growth hormone receptor mRNA; test: Inhibition of human growth hormone receptor mRNA levels by antisense oligonucleotides, quantitative real-time PCR, MCF7 cells; format: cell-based; set-up: concentration or dose not given beside the values; conditions: averages from three experiments
[2] = test system: IGF-I; test: Phase I trial: pharmacodynamic effect on serum IGF-I levels; format: in vivo, human; conditions: for Serum IGF-I change from pre-dose, Mean ± SD / Serum IGF-I % change from pre-dose: n=6
Excerpt: A secondary objective of this study was to obtain data on the pharmacodynamic effects of ATL1103 on the IGF-I levels in the blood of the trial subjects. Reduction of increased levels of serum IGF-I to normal is the therapeutic endpoint in the treatment of the growth disorder acromegaly, and reducing the effects of IGF-I has a potential role in the treatment of diabetic retinopathy, nephropathy and certain forms of cancer.
(§1) As defined in the statistical analysis plan, the effect of ATL1103 on serum IGF-I was assessed as a change in IGF-I levels versus baseline (starting point) readings for those subjects who received treatment (ATL1103). Pre-dose baseline levels of IGF-I were recorded prior to the commencement of dosing and then measured at weekly intervals until the end of the monitoring period. […] Other exploratory objectives of the study investigated the drug's mechanism of action and broader pharmacological profile, including the pharmacodynamic effects on levels of growth hormone binding protein (GHBP), insulin-like growth factor binding protein 3 (IGFBP-3), acid labile subunit of the insulin-like growth factor binding protein complex (ALS), and growth hormone (GH), as well as in vitro mitogenic and apoptotic parameters.

[3] = test system: growth hormone binding protein (GHBP); test: Phase I trial: exploratory PD, circulating GHBP; format: in vivo, human; conditions: for GHBP % change from pre-dose / GHBP mean change from pre-dose: Stage B, n=6
Experimental: as §1

[4] = test system: insulin-like growth factor binding protein 3 (IGF-BP3); test: Phase I trial: exploratory PD, IGF-BP3; format: in vivo, human; conditions: for IGF-BP3 % change from pre-dose / IGF-BP3 mean change from pre-dose: Stage B, n=6
Experimental: as §1

[5] = test system: insulin-like growth factor II (IGF-II); test: Phase I trial: exploratory PD, IGF-II; format: in vivo, human; conditions: Stage B, n=6
[6] = test system: insulin-like growth factor acid-labile subunit (ALS); test: Phase I trial: exploratory PD, ALS; format: in vivo, human; conditions: for ALS % change from pre-dose / ALS mean change from pre-dose: Stage B, n=6
Experimental: as §1

[7] = test system: growth hormone (GH); test: Phase I trial: exploratory PD, growth hormone levels; format: in vivo, human; conditions: listed as ATL1103
Experimental: as §1

[8] = test system: liver GHr RNA; test: Monotherapy and combination mouse study: relative liver GHR RNA; format: in vivo, mice; conditions: week 3, p=0.001
Excerpt: (§2) The GHr and IGF-I RNA data were statistically analysed using one-way ANOVA followed by Dunnetts test when comparing treated to saline control. The sIGF-I data were statistically analyzed using one-way […] comparisons.

[9] = test system: liver IGF-I RNA; test: Monotherapy and combination mouse study: relative liver IGF-I RNA; format: in vivo, mice; conditions: week 3, p=0.001
Excerpt: as §2

[10] = test system: serum IGF-I; test: Monotherapy and combination mouse study: serum IGF-I; format: in vivo, mice
Excerpt: as §2

[11] = test system: serum insulin like growth factor I (IGF-I); test: Phase II trial in patients with acromegaly: serum IGF-I reduction; format: in vivo, human
Excerpt: The primary endpoints or main purposes of the trial were (i) to evaluate the safety and tolerability of ATL1103 in patients with acromegaly, and (ii) to evaluate the single dose and multiple dose pharmacokinetic profiles of ATL1103 via the subcutaneous route in patients with acromegaly.

[12] = human, in vivo
Experimental: (§3) The primary objective of the Phase I trial was to assess the safety, tolerability and pharmacokinetics (pK) of ATL1103.
(§4) The Phase I trial was a randomized, placebo controlled, double blind study of single ascending doses and multiple doses of ATL1103 in healthy adult male subjects aged between 18 and 45 years. In the single ascending dose stage of the trial, 24 subjects were administered four dose levels of ATL1103 as a single injection starting at 25 mg and escalating to 75, 250 and 400 mg or placebo. The multiple dose stage was undertaken in 12 subjects, 8 who were to receive six subcutaneous doses of 250 mg of ATL1103 and 4 subjects who received placebo administered on days 1, 3, 5, 7, 14 and 21. Subjects were monitored out to day 35.

[13] = human, in vivo, sc
Excerpt: The Phase I trial was a randomized, placebo controlled, double blind study of single ascending doses and multiple doses of ATL1103 in healthy adult male subjects aged between 18 and 45 years. […] Subjects were monitored out to day 35.

[14] = Phase I trial: safety and tolerability of subcutaneous ATL1103 in healthy adult male subjects
Experimental: as §3, §4

[15] = ATL1103 12 mg/kg, 3 times in first week then 2 times weekly
[16] = ATL1103 25 mg/kg, 2 times weekly, compared to saline control

Substance: tcagggcattctttccattc (TCAGGGCATTCTTTCCATTC; chemistry not given here) [ISIS 227452]
- % INHIB (inhibitory effect on hGHR mRNA levels) [1]: 79%
- Serum IGF-I change from pre-dose, Mean ± SD ([2]; Stage B, 250 mg multiple dose, Day 3): +2.65 ± 9.47 nmol/L
- trend of serum IGF-I levels versus baseline ([2]; Stage B, from day 14 on, listed as ATL1103): trend in reduction in IGF-I levels from day 14 to day 28; also recorded: For IGF-I there was a clear trend for mean levels to be lower than baseline on days D14, 21, 28, 35 of
- Serum IGF-I % change from pre-dose ([2]; Stage B, Day 3): 12%
- Serum IGF-I % change from pre-dose ([2]; Stage B, Day 5): 6%
- Serum IGF-I change from pre-dose, Mean ± SD ([2]; Stage B, Day 5): +0.32 ± 7.42 nmol/L
- Serum IGF-I % change from pre-dose ([2]; Stage B, Day 7): 6%
- Serum IGF-I change from pre-dose, Mean ± SD ([2]; Stage B, Day 7): +0.77 ± 7.51 nmol/L
- Serum IGF-I % change from pre-dose ([2]; Stage B, Day 14): −2%
- Serum IGF-I change from pre-dose, Mean ± SD ([2]; Stage B, Day 14): -1.43 ± 7.19 nmol/L
- Serum IGF-I % change from pre-dose ([2]; Stage B, Day 21): −7%
- Serum IGF-I change from pre-dose, Mean ± SD ([2]; Stage B, Day 21): -3.40 ± 3.59 nmol/L
- Serum IGF-I % change from pre-dose ([2]; Stage B, Day 28): −7%
- Serum IGF-I change from pre-dose, Mean ± SD ([2]; Stage B, Day 28): -3.43 ± 7.53 nmol/L
- Serum IGF-I % change from pre-dose ([2]; Stage B, Day 35): −1%
- Serum IGF-I change from pre-dose, Mean ± SD ([2]; Stage B, Day 35): -1.9 ± 5.08 nmol/L
- reduction in mean IGF-I levels versus baseline ([2]; day 21, p=0.034 one sided t-test): 7%
- GHBP % change from pre-dose ([3]; Day 7): (0%)
- GHBP mean change from pre-dose ([3]; Day 7): -31.2 pmol/L
- GHBP % change from pre-dose ([3]; Day 21): (−16%)
- GHBP mean change from pre-dose ([3]; Day 21): −169.5** pmol/L
- GHBP % change from pre-dose ([3]; Day 28): (−19%)
- GHBP mean change from pre-dose ([3]; Day 28): −233.3* pmol/L
- reduction of GHBP ([3]; day 21, p=0.007): 16%
- reduction of GHBP ([3]; day 28, one week past the last dose, p<0.05): 19%
- effect on IGFBP-3 ([4]; Phase I multiple dose stage): significantly reduced
- IGF-BP3 % change from pre-dose ([4]; Day 7): (−10%)
- IGF-BP3 mean change from pre-dose ([4]; Day 7): −310.5** ng/ml
- IGF-BP3 % change from pre-dose ([4]; Day 21): (−8%)
- IGF-BP3 mean change from pre-dose ([4]; Day 21): −228.3* ng/ml
- IGF-BP3 % change from pre-dose ([4]; Day 28): (−5%)
- IGF-BP3 mean change from pre-dose ([4]; Day 28): -160.5 ng/mL
- IGF-II % change from pre-dose ([5]; Day 7): (−14%)
- IGF-II mean change from pre-dose ([5]; Day 7): −101.8*** ng/ml
- IGF-II % change from pre-dose ([5]; Day 21): (−8%)
- IGF-II mean change from pre-dose ([5]; Day 21): -57.5 ng/mL
- IGF-II % change from pre-dose ([5]; Day 28): (−5%)
- IGF-II mean change from pre-dose ([5]; Day 28): -29.2 ng/mL
- effect on ALS ([6]; Phase I multiple dose stage): significantly reduced
- ALS % change from pre-dose ([6]; Day 7): (−5%)
- ALS mean change from pre-dose ([6]; Day 7): −115.3 mU/ml
- ALS % change from pre-dose ([6]; Day 21): (−9%)
- ALS mean change from pre-dose ([6]; Day 21): −160.7 mU/ml
- ALS % change from pre-dose ([6]; Day 28): (−10%)
- ALS mean change from pre-dose ([6]; Day 28): −188.7* mU/ml
- effect on GH levels [7]: no effect; also recorded: No treatment-related effects were apparent in growth hormone levels (data not shown)
- reduction of liver GHr RNA [8, 15]: 99%
- reduction of liver GHr RNA [8, 16]: 99.7%
- reduction of liver IGF-I RNA [9, 15]: 64.3%
- reduction of liver IGF-I RNA [9, 16]: 76.2%
- reduction of sIGF-I ([10]; ATL1103 25 mg/kg 2 times weekly monotherapy, week 1, compared to baseline control levels, p<0.013): 25%
- reduction of sIGF-I ([10]; ATL1103 25 mg/kg, 2 times weekly, week 1, compared to control saline, p=0.0070): 36.5%
- reduction of sIGF-I ([10]; ATL1103 25 mg/kg, 2 times weekly, week 2, compared to control saline, p=0.004): 41.5%
- reduction of serum IGF-I ([10]; ATL1103 25 mg/kg, 2 times weekly, week 3, compared to saline control, p=0.003): 44.5%
- reduction in mean sIGF-I levels ([11]; 200 mg per week dose, week 14): no consistent reduction
- mean reduction in sIGF-I compared to baseline ([11]; 400 mg per week (twice weekly 200 mg), 4 patients with acromegaly, week 14): 30%
- mean reduction in sIGF-I compared to baseline ([11]; 400 mg per week, 3 patients with lower body weights (58-83 kg, below 85 kg), approx. 4.8-6.9 mg/kg, week 14): 38%
- range of sIGF-I reduction ([11]; 400 mg per week, 3 patients with lower body weights, week 14): 28-48%
- time course of sIGF-I (FIG. 1) ([11]; twice weekly 200 mg (400 mg per week), over the dosing period): progressive rate of reduction
- injection site reactions, number of events [12]: adverse events were injection site reactions (13).
- number of treatment-emergent adverse events (TEAE) [12]: There were 24 treatment-emergent adverse events (TEAE) in Stage A (19 in the 16 ATL1103-treated
- overall safety and tolerability [12]: ATL1103 was considered safe and generally well tolerated at the doses used in the study
- pain at injection site, number of events [12]: treated subjects most common adverse events reported were pain at injection site (6), headache
- severity of TEAE [12]: subjects, 5 in the 8 placebo-treated subjects), all reported as mild or moderate. In the ATL1103-
- severity of all adverse events [12]: mild to moderate
- AUClast ([13]; 25 mg): 3711 ± 822 ng·h/mL
- Cmax ([13]; 25 mg): 466 ± 136 ng/mL
- Tmax ([13]; 25 mg): 3.25 ± 0.5 h
- AUClast ([13]; 75 mg): 21342 ± 4755 ng·h/mL
- Cmax ([13]; 75 mg): 3139 ± 1576 ng/mL
- Tmax ([13]; 75 mg): 3.25 ± 0.96 h
- AUClast ([13]; 250 mg): 88942 ± 11295 ng·h/mL
- Cmax ([13]; 250 mg): 12383 ± 3000 ng/mL
- Tmax ([13]; 250 mg): 2.5 ± 1.29 h
- AUClast ([13]; 400 mg): 151123 ± 29434 ng·h/mL
- Cmax ([13]; 400 mg): 14343 ± 2823 ng/mL
- Tmax ([13]; 400 mg): 3.25 ± 0.96 h
- headache, number of events ([14]; Stage A, ATL1103-treated subjects): 5
- influenza-like illness, number of events ([14]; Stage A, ATL1103-treated subjects (after single doses of 400 mg)): 2
- influenza-like illness ([14]; after repeated doses of 250 mg): single doses of 400 mg ATL1103, this was not seen after repeated doses of 250 mg.
